In publication PMC7083225 (Cell Chemical Biology, 2020):

B1: VSD2-NavAb chimeric channel (hNav1.7 VSD2 sequences fused to a NavAb scaffold) (other)
chain: MYLRITNIVESSFFTKFIIYLIVLNTLFMAMEHHPMTEEFKNVLAIGNLVFTGIFAIEIILRIYVHRISFFKDPWSLFDSLIVTLSLVELFLADVEGLSVLRSFRLLRVFRLVTAVPQMRKIVSALISVIPGMLSVIALMTLFFYIFAIMATQLFGERFPEWFGTLGESFYTLFQVMTLESWSMGIVRPLMEVYPYAWVFFIPFIFVVTFVMINLVVAICVDAMAILNQKEEQHIIDEVQSHEDNINNEIIKLREEIVELKELIKTSLKN
notes: not shown: FLAG, N-terminal, kept

What was measured:
human Nav1.7 = human Nav1.7 (Homo sapiens, UniProt Q15858); assay: Automated patch-clamp electrophysiology, CHO cells expressing Nav1.7; format: cell-based; details: SyncroPatch 768PE automated patch clamp; CHO stable cell line expressing human Nav1.7; holding -120 mV, 10 ms pulse to -10 mV every 2 s; 25 min compound; four-parameter Hill fit, each point n = 3-20; read-out: IC50 (nM), Nav1.7 inhibition
human Nav1.7, sequence (Q15858 1-1977 isoform Q15858-4): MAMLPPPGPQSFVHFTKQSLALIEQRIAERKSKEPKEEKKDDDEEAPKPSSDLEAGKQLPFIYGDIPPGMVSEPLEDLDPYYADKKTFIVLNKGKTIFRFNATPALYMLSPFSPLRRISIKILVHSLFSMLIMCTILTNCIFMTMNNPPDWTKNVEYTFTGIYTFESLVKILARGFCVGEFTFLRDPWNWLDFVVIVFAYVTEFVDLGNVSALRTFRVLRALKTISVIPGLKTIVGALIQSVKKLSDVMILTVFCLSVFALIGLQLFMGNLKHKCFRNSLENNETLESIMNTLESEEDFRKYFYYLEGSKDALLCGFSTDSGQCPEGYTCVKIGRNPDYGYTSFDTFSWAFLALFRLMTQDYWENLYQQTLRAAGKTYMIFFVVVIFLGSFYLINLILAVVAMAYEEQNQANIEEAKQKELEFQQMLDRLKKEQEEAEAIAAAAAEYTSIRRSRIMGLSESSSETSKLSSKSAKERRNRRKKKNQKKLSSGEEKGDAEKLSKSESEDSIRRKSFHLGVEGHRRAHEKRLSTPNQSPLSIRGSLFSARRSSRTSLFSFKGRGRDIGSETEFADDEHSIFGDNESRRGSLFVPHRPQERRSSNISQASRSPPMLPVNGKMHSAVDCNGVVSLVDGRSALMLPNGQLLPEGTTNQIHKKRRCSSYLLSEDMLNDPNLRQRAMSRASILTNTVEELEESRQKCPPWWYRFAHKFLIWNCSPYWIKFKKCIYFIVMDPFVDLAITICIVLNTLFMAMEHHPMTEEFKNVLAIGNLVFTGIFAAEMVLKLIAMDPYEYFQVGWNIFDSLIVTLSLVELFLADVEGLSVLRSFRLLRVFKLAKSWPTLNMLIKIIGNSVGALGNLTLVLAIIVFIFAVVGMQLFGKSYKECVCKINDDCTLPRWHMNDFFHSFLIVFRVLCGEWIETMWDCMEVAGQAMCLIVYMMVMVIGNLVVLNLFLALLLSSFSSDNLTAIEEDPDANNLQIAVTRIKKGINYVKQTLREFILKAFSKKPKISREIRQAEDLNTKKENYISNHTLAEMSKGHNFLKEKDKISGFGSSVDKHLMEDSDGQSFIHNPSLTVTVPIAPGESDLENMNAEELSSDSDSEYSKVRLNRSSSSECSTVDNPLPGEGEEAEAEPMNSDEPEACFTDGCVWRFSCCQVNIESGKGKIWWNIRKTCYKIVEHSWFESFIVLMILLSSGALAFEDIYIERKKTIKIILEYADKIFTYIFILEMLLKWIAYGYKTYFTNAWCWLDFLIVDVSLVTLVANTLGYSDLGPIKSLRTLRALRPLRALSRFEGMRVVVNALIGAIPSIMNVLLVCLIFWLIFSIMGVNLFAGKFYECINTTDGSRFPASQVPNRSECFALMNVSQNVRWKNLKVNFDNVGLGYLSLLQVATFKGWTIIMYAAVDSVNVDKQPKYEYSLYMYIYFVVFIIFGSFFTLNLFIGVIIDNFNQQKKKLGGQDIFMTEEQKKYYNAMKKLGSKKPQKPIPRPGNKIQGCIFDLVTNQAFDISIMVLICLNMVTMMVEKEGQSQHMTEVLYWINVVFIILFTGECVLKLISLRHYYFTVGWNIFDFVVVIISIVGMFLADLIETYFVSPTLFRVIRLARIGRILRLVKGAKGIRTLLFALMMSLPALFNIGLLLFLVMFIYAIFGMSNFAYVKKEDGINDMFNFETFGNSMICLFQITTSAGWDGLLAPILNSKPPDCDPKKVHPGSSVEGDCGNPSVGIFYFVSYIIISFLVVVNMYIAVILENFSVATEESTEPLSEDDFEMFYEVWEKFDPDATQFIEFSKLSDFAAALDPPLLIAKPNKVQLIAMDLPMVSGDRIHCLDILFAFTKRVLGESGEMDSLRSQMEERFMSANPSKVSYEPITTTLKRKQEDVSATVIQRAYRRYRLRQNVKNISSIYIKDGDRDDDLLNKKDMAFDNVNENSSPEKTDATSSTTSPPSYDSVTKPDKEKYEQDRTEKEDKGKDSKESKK
Procedure: The obtained photoprobes were evaluated in a patch-clamp assay using CHO cells expressing Nav1.7 (Figure 1D).
For electrophysiological recordings, the human Nav1.7 (XM_011511618) expressing CHO stable cell line (Anaxon, Switzerland) was cultured in Ham’s F12 medium supplemented with 10% FBS, 2 mM L-Glutamine and required selection antibiotic in 5% CO2 at 37°C.
For all Nav channel recordings, the intracellular solution contained (in mM): 50 CsCl, 60 CsF, 10 NaCl, 20 EGTA and 10 HEPES (pH 7.2, osmolarity 285 mOsm), and extracellular solution contained (in mM): 80 NaCl, 60 NMDG, 4 KCl, 2 CaCl2, 1 MgCl2, 5 glucose and 10 HEPES (pH 7.4, osmolarity 300 mOsm). Automated patch clamp (APC) recordings were performed by using SyncroPatch 768PE (Nanion Technologies, Germany), with PatchController384 V1.5.2 and DataController384 V1.5.0 software for pulse generation and data collection. Currents were sampled at 10 kHz and filtered with Bessel filter. Series resistance was compensated 80% with leak subtraction. Seal resistance (Rseal) was calculated using built-in protocols, and high-quality recoding data was obtained by auto filtering 3 quality control criteria: cell catching (>10 MΩ), seal resistance (>500 MΩ) and baseline current amplitude (>500 pA), and follow with manual inspection. The voltage protocol for all toxin pharmacological tests was set with holding membrane potential (Vm) at -120 mV, eliciting a 10 ms pulse to -10 mV every 2 s, recording 5 min for baseline and followed with examining compound effect for 25 min. Nav channel inhibition was calculated as the percentage of peak current (I) decrease from before compound application (I_Baseline) to the end of 25 minutes compound application (I_End) and both being normalized to the end of experiment full block current (I_Fullblock) using this following equation: Block%=[1−(Iend−Ifullblock/Ibaseline−Ifullblock)]×100%
All Nav channel inhibitions were presented as mean ± standard error of the mean from at least three independent trials.

[1] = molecular target: the molecule itself; assay: SEC; size-exclusion chromatography after anti-FLAG affinity purification, in GDN detergent

Molecule	IC50 (human Nav1.7)	binding result [1]
CC[C@H](C)[C@H](NC(=O)[C@H](CCC(N)=O)NC(=O)[C@H](Cc1ccc(O)cc1)NC(=O)[C@H](CCCCN)NC(=O)[C@@H]1CSSC[C@@H]2NC(=O)[C@H](CCC(N)=O)NC(=O)[C@H](CC(=O)O)NC(=O)[C@H](CC(N)=O)NC(=O)[C@H](CO)NC(=O)[C@@H]3CCCN3C(=O)[C@H](CC(N)=O)NC(=O)[C@@H]3CSSC[C@H](NC(=O)[C@H](C(C)C)NC(=O)[C@H](CC(C)C)NC(=O)[C@H](CCCCN)NC(=O)[C@H](CO)NC(=O)[C@H](CO)NC(=O)[C@H](CCCCN)NC(=O)[C@H](CSSC[C@H](NC(=O)[C@@H](N)CCC(=O)O)C(=O)N[C@@H](CC(C)C)C(=O)N[C@@H](CCC(=O)O)C(=O)N[C@@H](CCC4(C)N=N4)C(=O)N[C@@H](Cc4ccccc4)C(=O)N[C@@H](CCCCN)C(=O)N[C@@H](C)C(=O)N3)NC2=O)C(=O)N[C@@H](CO)C(=O)N[C@@H](CCCNC(=N)N)C(=O)N[C@@H](CCCCN)C(=O)N[C@@H]([C@@H](C)O)C(=O)N[C@@H](CCCNC(=N)N)C(=O)N[C@@H](Cc2c[nH]c3ccccc23)C(=O)N1)C(N)=O [HTMp5]	41 nM	
CC[C@H](C)[C@H](NC(=O)[C@H](CCC(N)=O)NC(=O)[C@H](Cc1ccc(O)cc1)NC(=O)[C@H](CCCCN)NC(=O)[C@@H]1CSSC[C@@H]2NC(=O)[C@H](CCC(N)=O)NC(=O)[C@H](CC(=O)O)NC(=O)[C@H](CC(N)=O)NC(=O)[C@H](CO)NC(=O)[C@@H]3CCCN3C(=O)[C@H](CC(N)=O)NC(=O)[C@@H]3CSSC[C@H](NC(=O)[C@H](C(C)C)NC(=O)[C@H](CC(C)C)NC(=O)[C@H](CCCCN)NC(=O)[C@H](CO)NC(=O)[C@H](CO)NC(=O)[C@H](CCCCN)NC(=O)[C@H](CSSC[C@H](NC(=O)[C@@H](N)CCC(=O)O)C(=O)N[C@@H](CC(C)C)C(=O)N[C@@H](CCC(=O)O)C(=O)N[C@@H]([C@@H](C)CC)C(=O)N[C@@H](Cc4ccccc4)C(=O)N[C@@H](CCC4(C)N=N4)C(=O)N[C@@H](C)C(=O)N3)NC2=O)C(=O)N[C@@H](CO)C(=O)N[C@@H](CCCNC(=N)N)C(=O)N[C@@H](CCCCN)C(=O)N[C@@H]([C@@H](C)O)C(=O)N[C@@H](CCCNC(=N)N)C(=O)N[C@@H](Cc2c[nH]c3ccccc23)C(=O)N1)C(N)=O [HTMp7]	40 nM	
CC[C@H](C)[C@H](NC(=O)[C@H](CCC(N)=O)NC(=O)[C@H](Cc1ccc(O)cc1)NC(=O)[C@H](CCCCN)NC(=O)[C@@H]1CSSC[C@@H]2NC(=O)[C@H](CCC(N)=O)NC(=O)[C@H](CC(=O)O)NC(=O)[C@H](CC(N)=O)NC(=O)[C@H](CO)NC(=O)[C@@H]3CCCN3C(=O)[C@H](CC(N)=O)NC(=O)[C@@H]3CSSC[C@H](NC(=O)[C@H](C(C)C)NC(=O)[C@H](CC(C)C)NC(=O)[C@H](CCCCN)NC(=O)[C@H](CO)NC(=O)[C@H](CO)NC(=O)[C@H](CCCCN)NC(=O)[C@H](CSSC[C@H](NC(=O)[C@@H](N)CCC(=O)O)C(=O)N[C@@H](CC(C)C)C(=O)N[C@@H](CCC(=O)O)C(=O)N[C@@H]([C@@H](C)CC)C(=O)N[C@@H](Cc4ccccc4)C(=O)N[C@@H](CCCCN)C(=O)N[C@@H](C)C(=O)N3)NC2=O)C(=O)N[C@@H](CO)C(=O)N[C@@H](CCCNC(=N)N)C(=O)N[C@@H](CCCCN)C(=O)N[C@@H]([C@@H](C)O)C(=O)N[C@@H](CCC2(C)N=N2)C(=O)N[C@@H](Cc2c[nH]c3ccccc23)C(=O)N1)C(N)=O [HTMp29]	68 nM	
CC[C@H](C)[C@@H]1NC(=O)[C@H](CCC(=O)O)NC(=O)[C@H](CC(C)C)NC(=O)[C@@H](NC(=O)[C@@H](N)CCC(=O)O)CSSC[C@@H]2NC(=O)[C@@H]3CSSC[C@@H](C(=O)N[C@@H](CCCCN)C(=O)N[C@@H](Cc4ccc(O)cc4)C(=O)N[C@@H](CCC(N)=O)C(=O)N[C@@H](CCC4(C)N=N4)C(N)=O)NC(=O)[C@H](Cc4c[nH]c5ccccc45)NC(=O)[C@H](CCCNC(=N)N)NC(=O)[C@H]([C@@H](C)O)NC(=O)[C@H](CCCCN)NC(=O)[C@H](CCCNC(=N)N)NC(=O)[C@H](CO)NC(=O)[C@H](CSSC[C@H](NC(=O)[C@H](C)NC(=O)[C@H](CCCCN)NC(=O)[C@H](Cc4ccccc4)NC1=O)C(=O)N[C@@H](CC(N)=O)C(=O)N1CCC[C@H]1C(=O)N[C@@H](CO)C(=O)N[C@@H](CC(N)=O)C(=O)N[C@@H](CC(=O)O)C(=O)N[C@@H](CCC(N)=O)C(=O)N3)NC(=O)[C@H](C(C)C)NC(=O)[C@H](CC(C)C)NC(=O)[C@H](CCCCN)NC(=O)[C@H](CO)NC(=O)[C@H](CO)NC(=O)[C@H](CCCCN)NC2=O [HTMp35]	13 nM	
CC[C@H](C)[C@H](NC(=O)[C@H](CCC(N)=O)NC(=O)[C@H](Cc1ccc(O)cc1)NC(=O)[C@H](CCCCN)NC(=O)[C@@H]1CSSC[C@@H]2NC(=O)[C@H](CCC(N)=O)NC(=O)[C@H](CC(=O)O)NC(=O)[C@H](CC(N)=O)NC(=O)[C@H](CO)NC(=O)[C@@H]3CCCN3C(=O)[C@H](CC(N)=O)NC(=O)[C@@H]3CSSC[C@H](NC(=O)[C@H](C(C)C)NC(=O)[C@H](CC(C)C)NC(=O)[C@H](CCC4(C)N=N4)NC(=O)[C@H](CO)NC(=O)[C@H](CO)NC(=O)[C@H](CCCCN)NC(=O)[C@H](CSSC[C@H](NC(=O)[C@@H](N)CCC(=O)O)C(=O)N[C@@H](CC(C)C)C(=O)N[C@@H](CCC(=O)O)C(=O)N[C@@H]([C@@H](C)CC)C(=O)N[C@@H](Cc4ccccc4)C(=O)N[C@@H](CCCCN)C(=O)N[C@@H](C)C(=O)N3)NC2=O)C(=O)N[C@@H](CO)C(=O)N[C@@H](CCCNC(=N)N)C(=O)N[C@@H](CCCCN)C(=O)N[C@@H]([C@@H](C)O)C(=O)N[C@@H](CCCNC(=N)N)C(=O)N[C@@H](Cc2c[nH]c3ccccc23)C(=O)N1)C(N)=O [HTMp21]	35 nM	
CC[C@H](C)[C@H](NC(=O)[C@H](CCC(N)=O)NC(=O)[C@H](Cc1ccc(O)cc1)NC(=O)[C@H](CCCCN)NC(=O)[C@@H]1CSSC[C@@H]2NC(=O)[C@H](CCC(N)=O)NC(=O)[C@H](CC(=O)O)NC(=O)[C@H](CC(N)=O)NC(=O)[C@H](CO)NC(=O)[C@@H]3CCCN3C(=O)[C@H](CC(N)=O)NC(=O)[C@@H]3CSSC[C@H](NC(=O)[C@H](C(C)C)NC(=O)[C@H](CC(C)C)NC(=O)[C@H](CCCCN)NC(=O)[C@H](CO)NC(=O)[C@H](CO)NC(=O)[C@H](CCCCN)NC(=O)[C@H](CSSC[C@H](NC(=O)[C@@H](N)CCC(=O)O)C(=O)N[C@@H](CC(C)C)C(=O)N[C@@H](CCC(=O)O)C(=O)N[C@@H]([C@@H](C)CC)C(=O)N[C@@H](Cc4ccccc4)C(=O)N[C@@H](CCCCN)C(=O)N[C@@H](C)C(=O)N3)NC2=O)C(=O)N[C@@H](CO)C(=O)N[C@@H](CCCNC(=N)N)C(=O)N[C@@H](CCC2(C)N=N2)C(=O)N[C@@H]([C@@H](C)O)C(=O)N[C@@H](CCCNC(=N)N)C(=O)N[C@@H](Cc2c[nH]c3ccccc23)C(=O)N1)C(N)=O [HTMp27]	80 nM	
B1		binds
